Assays:
[1] = target: T1, DDR1 phosphorylation in T-47D (ATCC, HTB-133) cells (Homo sapiens, UniProt Q08345); experiment: Measurement of DDR1 phosphorylation suppression rate by using T-47D cells (p-DDR1 ELISA); type: cell-based; conditions: collagen Type I 10 μg/ml, p-DDR1 (panTyr) ELISA
T1 construct: host or cells: T-47D
Description: Biological Example 2: Measurement of DDR1 Phosphorylation Suppression Rate by Using T-47D (ATCC, HTB-133) cells
T-47D cells should be in culture for at least 7 days before using in the assay.
Cell culture medium: RPMI 1640 (HyClone) containing 10% Heat-FBS (HyClone) was prepared.
Assay medium: RPMI 1640 containing 0.1% BSA (solarbio) was prepared.
Collagen Type I (rat tail) solution: Assay medium containing 200 μg/mL Collagen I, rat tail (Gibco) was prepared.
Cell lysis buffer: a solution containing IX cell lysis buffer (CST) and 1× protease and phosphatase inhibitor cocktail (Thermofisher) was prepared by using ddH2O.
• 1. Collect cells into tubes and centrifuge at 1200 rpm for 5 min, at room temperature. Re-suspend the cells in cell culture medium pre-warmed to room temperature. • 2. Count cells and suspend at a density of 2×10^5/ml of cell culture medium. Plate the cells at 100 μL per well (Corning 3599 96-well plate, 2×10^4 cells per well final), mixing the cells well between each draw of the pipettor. • 3. Put lid on cell plate and place into the incubator at 37° C., 5% CO2 • 4. Culture cell overnight
• 1. Remove the plate from the incubator • 2. Cell medium is replaced with the 90 μL Assay medium.
• 1. Compound plates are pre-titrated using DMSO (10-fold dilution for 6 points) • 2. Dilute test compound using assay medium; Transfer 1 μL compound to other 96 well plate and then add 49 μL assay medium to each well (50 fold dilution). • 3. Add 5 μL the diluted test compound solution to the appropriate wells by pipettor. Compound final concentration is start from […] and DMSO final concentration is 0.1 • 4. Tap the plates gently to mix in compound. Reseal the plate with a lid and place in the incubator again, for 24 h.
• 1. Diluted collagen Type I in assay medium to the 200 μg/ml concentration • 2. Using the pipettor adds 5 μL of 200 μg/mL collagen Type I solution to the cell plate (compound well and High control well, collagen final conc. is 10 μg/ml). Add assay medium buffer to the control wells (low control well) • 3. Reseal the plate with a lid and place in the incubator. Incubate 24 h for collagen type I
• 1. After incubation, add 100 µL per well Cell lysis buffer. • 2. Incubate 30 min on ice, then freezing to −80° C. to get the fully cell lysates. • 3. Transfer cell lysates to new plate • 4. Centrifuge for 30 min (×4000 rpm) at 4° C. Then transfer the supernatant to a new plate.
p-DDR1 (panTyr) ELISA kit (CST) was used in the study. The measurement was carried out according to the attached instruction.
(§1) The inhibition rate (%) in the test compound group was calculated based on the following mathematical formula.
% inhibition=100−100*(assay value of test compound−A)/(B−A) [Math. 2]
A: average value of low control group B: average value of high control group Values of 50% inhibition rate (IC50 values) of the test compound were calculated from the inhibition curve based on the inhibition rate of the test compounds in each concentration.

DDR1 = target: T2, DDR1 (Homo sapiens, UniProt Q08345); experiment: Measurement of DDR1 inhibitory activity (LanthaScreen system, in vitro test); type: binding; conditions: GST-DDR1, Kinase tracer 178
T2 construct: purchased Invitrogen
Description: Biological Experiment Example 1: Measurement of an DDR1 Inhibitory Activity (In Vitro Test)
An DDR1 enzyme inhibitory activity was measured by using LanthaScreen (registered trademark) system (Invitrogen) based on the attached instruction. The reagents used are shown below.
Assay buffer: 5× Kinase buffer A (Invitrogen) was diluted 5-fold with ddH2O.
1× Kinase Buffer A: 50 mmol/L HEPES pH 7.5, 10 mmol/L MgCl2, 1 mmol/L EGTA, 0.01% Brij-35.
2×DDR1 Solution: a solution containing […] GST-DDR1 (Invitrogen) was prepared by using Assay buffer.
2× Tracer/antibody solution: a solution containing 20 nmol/L Kinase tracer 178 (Invitorgen) and […] Eu-Anti-GST Antibody (Invitorogen) was prepared by using Assay buffer. Test compound solution: a solution containing a test compound of 2-fold concentration with respect to the final concentration was prepared by 50-fold diluting a DMSO solution of test compound of each concentration with the Assay buffer.
• 1 Add 5 μL 2×DDR1 Solution to proxiplate (PerkinElmer) • 2 Add 5 μL test compound solution to proxiplate • 3 Incubate for 15 min at RT • 4 Add 5 μL 2× Tracer/Antibody solution to all well Incubate 1 h at RT • 6 Read LANCE Eu on Envision (PerkinElmer) (Ex: 320 nm/Em 665 nm & 615 nm)
In the low control group, 5 μL Assay buffer was added instead of 5 μL 2×DDR1 Solution and the final 1% DMSO solution was added instead of test compound solution.
In the high control group, the final 1% DMSO solution was added instead of test compound solution.
as §1
% inhibition=100−100*(assay value of test compound−A)/(B−A) [Math. 1]
A: average value of low control group B: average value of high control group
Values of 50% inhibition rate (IC50 values) of the test compound were calculated from the inhibition curve based on the inhibition rate of the test compounds in each concentration.

T2 sequence (Q08345 19-913): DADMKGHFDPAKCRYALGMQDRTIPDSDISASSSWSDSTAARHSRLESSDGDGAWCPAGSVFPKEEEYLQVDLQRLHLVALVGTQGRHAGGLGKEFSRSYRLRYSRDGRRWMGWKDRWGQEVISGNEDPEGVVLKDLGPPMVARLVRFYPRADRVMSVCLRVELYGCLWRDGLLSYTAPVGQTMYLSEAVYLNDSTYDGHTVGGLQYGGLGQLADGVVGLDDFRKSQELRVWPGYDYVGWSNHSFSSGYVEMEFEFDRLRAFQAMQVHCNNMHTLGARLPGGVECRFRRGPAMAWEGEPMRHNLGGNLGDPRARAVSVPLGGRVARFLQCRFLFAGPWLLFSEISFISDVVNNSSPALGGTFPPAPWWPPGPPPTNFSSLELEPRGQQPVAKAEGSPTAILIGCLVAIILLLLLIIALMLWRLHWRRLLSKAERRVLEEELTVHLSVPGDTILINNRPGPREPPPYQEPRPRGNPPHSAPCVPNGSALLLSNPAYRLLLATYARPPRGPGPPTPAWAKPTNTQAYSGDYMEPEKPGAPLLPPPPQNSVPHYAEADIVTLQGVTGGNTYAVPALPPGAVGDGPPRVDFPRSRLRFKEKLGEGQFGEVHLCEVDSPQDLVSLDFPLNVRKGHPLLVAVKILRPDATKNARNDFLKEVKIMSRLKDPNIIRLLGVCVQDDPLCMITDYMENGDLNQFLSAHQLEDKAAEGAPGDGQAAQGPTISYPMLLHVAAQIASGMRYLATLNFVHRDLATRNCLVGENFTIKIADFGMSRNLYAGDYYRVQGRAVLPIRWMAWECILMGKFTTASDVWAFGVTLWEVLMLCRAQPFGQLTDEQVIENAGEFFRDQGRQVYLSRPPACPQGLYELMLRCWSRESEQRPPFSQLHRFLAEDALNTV
T1 sequence (Q08345 19-913): as above

SMILES	IC50 [1]	IC50 (DDR1)
Cn1cc(-c2cc(O[C@H]3C[C@H](N4C(=O)CN(c5cc(CN6CCNCC6)cc(C(F)(F)F)c5)C4=O)C3)ccn2)cn1 [Example 2(126), 3-(trans-3-{[2-(1-methyl-1H-pyrazol-4-yl)-4-pyridinyl]oxy}cyclobutyl)-1-[3-(1-piperazinylmethyl)-5-(trifluoromethyl)phenyl]-2,4-imidazolidinedione]	6 nM	10 nM
CC(C)c1cc(N2C(=O)CN(c3cncc(C(F)(F)F)c3)C2=O)ccc1Oc1ccnc2[nH]c(=O)[nH]c12 [Example 2(149), 3-{3-isopropyl-4-[(2-oxo-2,3-dihydro-1H-imidazo[4,5-b]pyridin-7-yl)oxy]phenyl}-1-[5-(trifluoromethyl)-3-pyridinyl]-2,4-imidazolidinedione]	3 nM	3 nM
Cc1cc(N2C(=O)CN(c3cncc(C(F)(F)F)c3)C2=O)ccc1Oc1ccnc2ccnn12 [Example 3(47), 3-[3-methyl-4-(pyrazolo[1,5-a]pyrimidin-7-yloxy)phenyl]-1-[5-(trifluoromethyl)-3-pyridinyl]-2,4-imidazolidinedione]	1 nM	1 nM
O=C1CN(c2cncc(C(F)(F)F)c2)C(=O)N1C1CC2CC1CC2Oc1ncnc2[nH]ccc12 (centres unmarked) [Example 3(63), 3-[5-(7H-pyrrolo[2,3-d]pyrimidin-4-yloxy)bicyclo[2.2.1]hept-2-yl]-1-[5-(trifluoromethyl)-3-pyridinyl]-2,4-imidazolidinedione]	1 nM	7 nM
O=C1CN(c2cncc(C(F)(F)F)c2)C(=O)N1C1CC2(CC(Oc3ncnc4[nH]ccc34)C2)C1 (centres unmarked) [Example 3(66), 3-[6-(7H-pyrrolo[2,3-d]pyrimidin-4-yloxy)spiro[3.3]hept-2-yl]-1-[5-(trifluoromethyl)-3-pyridinyl]-2,4-imidazolidinedione]	1 nM	1 nM
CC(C)c1cc(N2C(=O)CN(c3ccc(CN4CCN(C)CC4)c(C(F)(F)F)c3)C2=O)ccc1Oc1ccnc(N)n1 [Example 3(78), 3-{4-[(2-amino-4-pyrimidinyl)oxy]-3-isopropylphenyl}-1-{4-[(4-methyl-1-piperazinyl)methyl]-3-(trifluoromethyl)phenyl}-2,4-imidazolidinedione]	2 nM	4 nM
CCc1cc(N2C(=O)CN(c3cc(C(C)(C)C(F)(F)F)on3)C2=O)ccc1Oc1ccnc(N)n1 [Example 3(101), 3-{4-[(2-amino-4-pyrimidinyl)oxy]-3-ethylphenyl}-1-[5-(1,1,1-trifluoro-2-methyl-2-propanyl)-1,2-oxazol-3-yl]-2,4-imidazolidinedione]	2 nM	3 nM
Cc1cc(Oc2ccnc(N)n2)ccc1N1C(=O)CN(c2cc(F)cc(C(F)(F)F)c2)C1=O [Example 3(111), 3-{4-[(2-amino-4-pyrimidinyl)oxy]-2-methylphenyl}-1-[3-fluoro-5-(trifluoromethyl)phenyl]-2,4-imidazolidinedione]	1 nM	1 nM
CC#Cc1cc(Oc2ccnc(N)n2)ccc1N1C(=O)CN(c2cncc(C(F)(F)F)c2)C1=O [Example 3(120), 3-{4-[(2-amino-4-pyrimidinyl)oxy]-2-(1-propyn-1-yl)phenyl}-1-[5-(trifluoromethyl)-3-pyridinyl]-2,4-imidazolidinedione]	5 nM	7 nM
Nc1nccc(Oc2ccc(N3C(=O)CN(c4cncc(C(F)(F)F)c4)C3=O)c(-c3ccccc3)c2)n1 [Example 3(122), 3-{5-[(2-amino-4-pyrimidinyl)oxy]-2-biphenylyl}-1-[5-(trifluoromethyl)-3-pyridinyl]-2,4-imidazolidinedione]	7 nM	5 nM
CCc1cc(N2C(=O)CN(c3cncc(C(F)(F)F)c3)C2=O)ccc1Oc1ccnc2[nH]ccc12 [Example 3(176), 3-[3-ethyl-4-(1H-pyrrolo[2,3-b]pyridin-4-yloxy)phenyl]-1-[5-(trifluoromethyl)-3-pyridinyl]-2,4-imidazolidinedione]	0.1 nM	2 nM
CCc1cc(N2CCN(c3cccc(C(F)(F)F)c3)C2=O)ccc1Oc1ccnc(N)n1 [Example 4(1), 1-{4-[(2-amino-4-pyrimidinyl)oxy]-3-ethylphenyl}-3-[3-(trifluoromethyl)phenyl]-2-imidazolidinone]	1 nM	3 nM
COc1cc2nccc(Cc3ccc(N4C(=O)CN(c5cccc(C(F)(F)F)c5)C4=O)cc3)c2cc1OC [Example 6(1), 3-{4-[(6,7-dimethoxy-4-quinolinyl)methyl]phenyl}-1-[3-(trifluoromethyl)phenyl]-2,4-imidazolidinedione]	2 nM	5 nM
C=Cc1cc(N2C(=O)CN(c3cncc(C(F)(F)F)c3)C2=O)ccc1Nc1ncnc2cc(OC)cc(F)c12 [Example 7(6), 3-{4-[(5-fluoro-7-methoxy-4-quinazolinyl)amino]-3-vinylphenyl}-1-[5-(trifluoromethyl)-3-pyridinyl]-2,4-imidazolidinedione]	2 nM	3 nM
COc1cc2nccc(N3CCc4cc(N5C(=O)CN(c6cncc(C(F)(F)F)c6)C5=O)ccc43)c2cc1OC [Example 9(1), 3-[1-(6,7-dimethoxy-4-quinolinyl)-2,3-dihydro-1H-indol-5-yl]-1-[5-(trifluoromethyl)-3-pyridinyl]-2,4-imidazolidinedione]	20 nM	10 nM
O=C1CN(c2cncc(C3(C(F)(F)F)CCO3)c2)C(=O)N1c1ccc(Oc2cnc3[nH]ncc3c2)cc1 (centres unmarked) [Example 13, 3-[4-(1H-pyrazolo[3,4-b]pyridin-5-yloxy)phenyl]-1-{5-[2-(trifluoromethyl)-2-oxetanyl]-3-pyridinyl}-2,4-imidazolidinedione]	3 nM	3 nM

From US20220306640A1, “HYDANTOIN DERIVATIVE” (ONO PHARMACEUTICAL CO., LTD., priority 2019, published 2022)
